Measurements taken from patent publication US11266662B2, “Ganaxolone for use in prophylaxis and treatment of postpartum depression” (Marinus Pharmaceuticals, Inc., priority 2018, dated 2022).
Several values for one entry are separate records, joined by “and”; a condition that tells them apart may be missing. Identical values can stand only once.

Assay: Phase 2A study (Magnolia) in women with postpartum depression: ganaxolone plasma concentrations / pharmacokinetics
Conditions: for Ratio GNX Concentration (ng/mL)/(μg/hr/kg): individual subjects of Cohorts 1-3 (order of Table 1A), listed as GNX
Protocol: Approximately 200 women with PPD 18 to 45 years of age are screened to randomize up to 100 subjects across up to 6 cohorts. Approximately 10-30 subjects are randomized into each cohort. Randomized subjects receive the investigational product (IP), ganaxolone or matching placebo in a 1:1 ratio. In Cohorts 1-5 the IP is administered intravenously over 60 hours. In Cohort 6 the dosing is initiated with a 6-hour intravenous (IV) infusion followed by oral dosing for 28 days plus 3-day taper.
Ganaxolone is infused at a rate of 4 mg/hr (16 ml/h of ganaxolone 0.25 mg/ml solution) for 48 hours and then, to minimize any risks for withdrawal or rebound of anxiety and depression symptoms, at a rate of 2 mg/hr for the next 12 hours. The infusion is stopped at 60 hours. Total of 9 subjects are dosed for this cohort.
Ganaxolone is infused at a rate of 8 mg/hr (16 ml/h of ganaxolone 0.5 mg/ml solution) for 48 hours and then at a rate of 4 mg/hr for the next 12 hours. This dose is approximately double the expected plasma exposure as compared to Cohort 1 at steady state (Cohort 2 expected plasma concentration ˜100-120 ng/mL). The infusion is stopped at 60 hours.
Twelve mg bolus of ganaxolone is initially given over 2 minutes followed by ganaxolone infusion at a rate of 12 mg/hr (24 ml/h of ganaxolone 0.5 mg/ml solution) for 48 hours. The rate is then reduced to 6 mg/hr for the next 12 hours, which is done to minimize any risks for withdrawal or rebound of anxiety and depression symptoms. The infusion is stopped at 60 hours.
In this cohort dosing is initiated with ganaxolone infusion at a rate of 20 mg/hr (40 ml/h of ganaxolone 0.5 mg/ml solution or matching placebo) for 6 hours followed by ganaxolone 900 mg (four 225 mg capsules per dose) or matching placebo capsules given orally at dinner time for 28 days followed by a 3-day taper (three, two, and one 225 mg capsule(s) per day, respectively).
This initial infusion is targeted to provide a fast onset of antidepressant activity by delivery of rapid plasma exposures to ganaxolone. Then, at dinner time of Day 1 the subjects take their first oral dose of ganaxolone 900 mg (four 225 mg capsules) or matching placebo (4 capsules). […] In previous studies, ganaxolone has been given up to a daily dose of 2000 mg, and at single doses of 1000 mg.
Six samples are collected for pharmacokinetic analysis in Cohorts 1-5 and 12 samples in Cohort 6. […] Seven samples are collected during the inpatient phase of Cohort 6 (including 6 samples on Day 1) followed by collection of 5 samples during the outpatient phase during the study visits for a total of 12 samples in Cohort 6.

[1] = female, human, plasma, intravenous, 260 μg/kg/hr, Mean average GNX Concentration, calculated for dose 260 μg/kg/hr
[2] = female, human, plasma, iv, GNX Concentration, Cohort 1: IV 4 mg/hr for 48 h then 2 mg/hr for 12 h, individual subjects

Compound `CC(=O)[C@H]1CC[C@H]2[C@@H]3CC[C@H]4C[C@](C)(O)CC[C@]4(C)[C@H]3CC[C@]12C` [ganaxolone, 3α-hydroxy-3β-methyl-5α-pregnan-20-one] has a concentration at 12 h [1] of 246 ng/mL, a concentration at 24 h [1] of 276 ng/mL and a concentration at 48 h [1] of 304 ng/mL. The AUC (female, human, plasma, iv, 86 ug/kg, AUC12-24, calculated from Table 1C, dose 86 μg/kg/hr (row order of Table 1C)) was 1040 ng·h/mL, the AUC (female, human, plasma, iv, 86 ug/kg, AUC12-48, calculated from Table 1C, dose 86 μg/kg/hr (row order of Table 1C)) was 3340 ng·h/mL and the AUC (female, human, plasma, iv, 86 ug/kg, AUC24-48, calculated from Table 1C, dose 86 μg/kg/hr (row order of Table 1C)) was 2300 ng·h/mL. It also gave an AUC (female, human, plasma, iv, 150 ug/kg, AUC12-24, calculated from Table 1C, dose 150 μg/kg/hr (row order of Table 1C)) of 1810 ng·h/mL, an AUC (female, human, plasma, iv, 150 ug/kg, AUC12-48, calculated from Table 1C, dose 150 μg/kg/hr (row order of Table 1C)) of 5820 ng·h/mL and an AUC (female, human, plasma, iv, 150 ug/kg, AUC24-48, calculated from Table 1C, dose 150 μg/kg/hr (row order of Table 1C)) of 4010 ng·h/mL. It also gave an AUC (female, human, plasma, iv, 160 ug/kg, AUC12-24, calculated from Table 1C, dose 160 μg/kg/hr (row order of Table 1C)) of 1930 ng·h/mL, an AUC (female, human, plasma, iv, 160 ug/kg, AUC12-48, calculated from Table 1C, dose 160 μg/kg/hr (row order of Table 1C)) of 6210 ng·h/mL and an AUC (female, human, plasma, iv, 160 ug/kg, AUC24-48, calculated from Table 1C, dose 160 μg/kg/hr (row order of Table 1C)) of 4280 ng·h/mL. It also gave an AUC (female, human, plasma, iv, 170 ug/kg, AUC12-24, calculated from Table 1C, dose 170 μg/kg/hr (row order of Table 1C)) of 2050 ng·h/mL, an AUC (female, human, plasma, iv, 170 ug/kg, AUC12-48, calculated from Table 1C, dose 170 μg/kg/hr (row order of Table 1C)) of 6600 ng·h/mL and an AUC (female, human, plasma, iv, 170 ug/kg, AUC24-48, calculated from Table 1C, dose 170 μg/kg/hr (row order of Table 1C)) of 4550 ng·h/mL. For the same compound, the AUC (female, human, plasma, iv, 180 ug/kg, AUC12-24, calculated from Table 1C, dose 180 μg/kg/hr (row order of Table 1C)) was 2170 ng·h/mL, the AUC (female, human, plasma, iv, 180 ug/kg, AUC12-48, calculated from Table 1C, dose 180 μg/kg/hr (row order of Table 1C)) was 6980 ng·h/mL and the AUC (female, human, plasma, iv, 180 ug/kg, AUC24-48, calculated from Table 1C, dose 180 μg/kg/hr (row order of Table 1C)) was 4820 ng·h/mL. It also gave an AUC (female, human, plasma, iv, 190 ug/kg, AUC12-24, calculated from Table 1C, dose 190 μg/kg/hr (row order of Table 1C)) of 2290 ng·h/mL, an AUC (female, human, plasma, iv, 190 ug/kg, AUC12-48, calculated from Table 1C, dose 190 μg/kg/hr (row order of Table 1C)) of 7370 ng·h/mL and an AUC (female, human, plasma, iv, 190 ug/kg, AUC24-48, calculated from Table 1C, dose 190 μg/kg/hr (row order of Table 1C)) of 5080 ng·h/mL. For the same compound, the AUC (female, human, plasma, iv, 200 ug/kg, AUC12-24, calculated from Table 1C, dose 200 μg/kg/hr (row order of Table 1C)) was 2410 ng·h/mL, the AUC (female, human, plasma, iv, 200 ug/kg, AUC12-48, calculated from Table 1C, dose 200 μg/kg/hr (row order of Table 1C)) was 7760 ng·h/mL and the AUC (female, human, plasma, iv, 200 ug/kg, AUC24-48, calculated from Table 1C, dose 200 μg/kg/hr (row order of Table 1C)) was 5350 ng·h/mL. For the same compound, the AUC (female, human, plasma, iv, 210 ug/kg, AUC12-24, calculated from Table 1C, dose 210 μg/kg/hr (row order of Table 1C)) was 2530 ng·h/mL, the AUC (female, human, plasma, iv, 210 ug/kg, AUC12-48, calculated from Table 1C, dose 210 μg/kg/hr (row order of Table 1C)) was 8150 ng·h/mL and the AUC (female, human, plasma, iv, 210 ug/kg, AUC24-48, calculated from Table 1C, dose 210 μg/kg/hr (row order of Table 1C)) was 5620 ng·h/mL. It also gave an AUC (female, human, plasma, iv, 220 ug/kg, AUC12-24, calculated from Table 1C, dose 220 μg/kg/hr (row order of Table 1C)) of 2650 ng·h/mL, an AUC (female, human, plasma, iv, 220 ug/kg, AUC12-48, calculated from Table 1C, dose 220 μg/kg/hr (row order of Table 1C)) of 8540 ng·h/mL and an AUC (female, human, plasma, iv, 220 ug/kg, AUC24-48, calculated from Table 1C, dose 220 μg/kg/hr (row order of Table 1C)) of 5890 ng·h/mL. For the same compound, the AUC (female, human, plasma, iv, 260 ug/kg, AUC12-24, calculated from Table 1C, dose 260 μg/kg/hr (row order of Table 1C)) was 3130 ng·h/mL, the AUC (female, human, plasma, iv, 260 ug/kg, AUC12-48, calculated from Table 1C, dose 260 μg/kg/hr (row order of Table 1C)) was 10100 ng·h/mL and the AUC (female, human, plasma, iv, 260 ug/kg, AUC24-48, calculated from Table 1C, dose 260 μg/kg/hr (row order of Table 1C)) was 6960 ng·h/mL. For the same compound, the concentration at 12 h [2] was 58.8 ng/mL, the concentration at 24 h [2] was 72.6 ng/mL and the concentration at 48 h [2] was 78.1 ng/mL. For the same compound, the concentration at 72 h (female, human, plasma, iv, GNX Concentration, Cohort 1: IV 4 mg/hr for 48 h then 2 mg/hr for 12 h, individual subjects, time 72 hr) was 10.1 ng/mL, the “Ratio GNX Concentration (ng/mL)/(μg/hr/kg)” value (shortened to “Ratio GNX Concentration”) (time 12 hrs) was 0.99 (ng/mL)/(μg/hr/kg) and 1.24 (ng/mL)/(μg/hr/kg) and 0.74 (ng/mL)/(μg/hr/kg) and 1.21 (ng/mL)/(μg/hr/kg) (3×) and 0.94 (ng/mL)/(μg/hr/kg) and 0.90 (ng/mL)/(μg/hr/kg) and 0.87 (ng/mL)/(μg/hr/kg) and 0.76 (ng/mL)/(μg/hr/kg) and 1.08 (ng/mL)/(μg/hr/kg) (2×) and 0.53 (ng/mL)/(μg/hr/kg) and 1.14 (ng/mL)/(μg/hr/kg) and 0.83 (ng/mL)/(μg/hr/kg) and 0.89 (ng/mL)/(μg/hr/kg) and 0.97 (ng/mL)/(μg/hr/kg) (3×) and 0.82 (ng/mL)/(μg/hr/kg) and 0.80 (ng/mL)/(μg/hr/kg) (2×) and 1.02 (ng/mL)/(μg/hr/kg) and 0.86 (ng/mL)/(μg/hr/kg) and 0.60 (ng/mL)/(μg/hr/kg) and 1.28 (ng/mL)/(μg/hr/kg) and the “Ratio GNX Concentration” value (time 24 hrs) was 1.22 (ng/mL)/(μg/hr/kg) (3×) and 1.45 (ng/mL)/(μg/hr/kg) and 0.96 (ng/mL)/(μg/hr/kg) (2×) and 1.53 (ng/mL)/(μg/hr/kg) and 0.28 (ng/mL)/(μg/hr/kg) and 0.63 (ng/mL)/(μg/hr/kg) and 1.12 (ng/mL)/(μg/hr/kg) (3×) and 1.32 (ng/mL)/(μg/hr/kg) (2×) and 0.86 (ng/mL)/(μg/hr/kg) and 1.36 (ng/mL)/(μg/hr/kg) and 1.03 (ng/mL)/(μg/hr/kg) (2×) and 1.16 (ng/mL)/(μg/hr/kg) and 1.34 (ng/mL)/(μg/hr/kg) and 0.95 (ng/mL)/(μg/hr/kg) and 0.92 (ng/mL)/(μg/hr/kg) and 1.48 (ng/mL)/(μg/hr/kg) and 0.55 (ng/mL)/(μg/hr/kg) and 0.13 (ng/mL)/(μg/hr/kg). The “Ratio GNX Concentration” value (time 48 hrs) was 1.31 (ng/mL)/(μg/hr/kg) and 1.39 (ng/mL)/(μg/hr/kg) and 1.42 (ng/mL)/(μg/hr/kg) and 1.12 (ng/mL)/(μg/hr/kg) and 1.23 (ng/mL)/(μg/hr/kg) (2×) and 1.01 (ng/mL)/(μg/hr/kg) and 0.97 (ng/mL)/(μg/hr/kg) and 1.06 (ng/mL)/(μg/hr/kg) and 0.81 (ng/mL)/(μg/hr/kg) and 1.09 (ng/mL)/(μg/hr/kg) and 0.78 (ng/mL)/(μg/hr/kg) (2×) and 1.02 (ng/mL)/(μg/hr/kg) and 1.76 (ng/mL)/(μg/hr/kg) and 1.17 (ng/mL)/(μg/hr/kg) and 1.47 (ng/mL)/(μg/hr/kg) and 1.20 (ng/mL)/(μg/hr/kg) and 1.60 (ng/mL)/(μg/hr/kg) and 0.55 (ng/mL)/(μg/hr/kg) and 1.56 (ng/mL)/(μg/hr/kg) and 0.80 (ng/mL)/(μg/hr/kg) and 0.84 (ng/mL)/(μg/hr/kg) and the “Ratio GNX Concentration” value (time 72 hrs) was 0.17 (ng/mL)/(μg/hr/kg) (2×) and 0.31 (ng/mL)/(μg/hr/kg) and 0.28 (ng/mL)/(μg/hr/kg) and 0.33 (ng/mL)/(μg/hr/kg) (2×) and 0.18 (ng/mL)/(μg/hr/kg) and 0.10 (ng/mL)/(μg/hr/kg) and 0.25 (ng/mL)/(μg/hr/kg) and 0.32 (ng/mL)/(μg/hr/kg) and 0.29 (ng/mL)/(μg/hr/kg) and 0.24 (ng/mL)/(μg/hr/kg) and 0.21 (ng/mL)/(μg/hr/kg) (2×) and 0.36 (ng/mL)/(μg/hr/kg) and 0.16 (ng/mL)/(μg/hr/kg) (2×) and 0.13 (ng/mL)/(μg/hr/kg) (2×) and 0.23 (ng/mL)/(μg/hr/kg) (2×) and 0.34 (ng/mL)/(μg/hr/kg) and 0.35 (ng/mL)/(μg/hr/kg) and 0.38 (ng/mL)/(μg/hr/kg) and 0.19 (ng/mL)/(μg/hr/kg) (2×).
